According to ChEMBL document CHEMBL1201862, “PubChem BioAssay data set” (2004):
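Growth conditions: 96-well plates. Treatment: test compound, 48 hours, 5 concentrations. Analysis: linear interpolation between bracketing concentrations; unreached endpoints set to highest concentration. The concentration for 50% growth inhibition is given as GI50.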 The source made the active and inactive calls. Rule as the data show it: active = GI50 up to about 1.1 µM and inactive = higher.

Tests used:
Assay in all cases: NCI-60 cell line screen, 48 h
[1] = test system: A498
[2] = test system: CAKI-1
[3] = test system: COLO 205
[4] = test system: DU-145
[5] = test system: HCT-116
[6] = test system: HT-29
[7] = test system: K562
[8] = test system: M14
[9] = test system: MCF7
[10] = test system: MDA-MB-231
[11] = test system: MOLT-4
[12] = test system: NCI-H226
[13] = test system: OVCAR-3
[14] = test system: SF-268
[15] = test system: SK-MEL-28
[16] = test system: UACC-257
[17] = test system: UACC-62
[18] = test system: UO-31
[19] = test system: NCI-H522

Measured: GI50

N#CC12COC3(CCCCC3C1(C#N)C#N)OC2=N (centres undefined)
inactive: [1] 18.2 µM | [2] 3.59 µM | [3] 6.4 µM | [4] 15.3 µM | [5] 12.6 µM | [6] 11.3 µM | [7] 10.6 µM | [8] 10.6 µM | [9] 11.7 µM | [10] 15.2 µM | [11] 10.9 µM | [12] 22.9 µM | [13] 11.1 µM | [14] 12.7 µM | [15] 14.6 µM | [16] 17.4 µM | [17] 14.7 µM | [18] 15.2 µM

O=C1c2ccccc2/N=C(/c2cc3c(cc2Cl)Sc2nccn2S3(=O)=O)OS(=O)(=O)N1c1ccccc1
inactive: [1] > 100 µM | [2] 35.7 µM | [3] 19.9 µM | [4] 37.4 µM | [5] 15.5 µM | [6] 23.3 µM | [7] 35.2 µM | [8] 16.9 µM | [9] 24.6 µM | [10] 22.7 µM | [11] 9.33 µM | [12] 39.4 µM | [19] 5.31 µM | [13] 37 µM | [14] 37.3 µM | [16] 64.7 µM | [17] 20.5 µM | [18] 26 µM

O=c1[nH]nc(Cc2ccccc2)n1/N=C\c1ccccc1
inactive: [1] > 100 µM | [2] > 100 µM | [3] > 100 µM | [4] > 100 µM | [5] > 100 µM | [6] > 100 µM | [7] > 100 µM | [9] > 100 µM | [10] > 100 µM | [11] > 100 µM | [12] > 100 µM | [19] > 100 µM | [13] > 100 µM | [14] > 10 µM | [15] > 100 µM | [16] > 100 µM | [17] 95.5 µM | [18] > 100 µM

C=C(C)CC1=C(OCC)C(OC)(OCC)C1=O (centres undefined)
inactive: [1] > 100 µM | [2] > 100 µM | [3] > 100 µM | [4] > 100 µM | [5] > 100 µM | [6] > 100 µM | [8] > 100 µM | [9] > 100 µM | [10] > 100 µM | [11] > 100 µM | [12] > 100 µM | [19] 47.8 µM | [13] > 100 µM | [14] > 100 µM | [15] > 100 µM | [16] > 100 µM | [17] > 100 µM | [18] > 100 µM

O=c1oc2ccccc2c2c(=O)c3ccc(OC/C(=N/O)c4ccc(Cl)cc4)cc3oc12
inactive: [1] 3.15 µM | [2] 10.6 µM | [3] 15 µM | [4] 18.6 µM | [5] 11.2 µM | [7] 2 µM | [8] 14.6 µM | [9] 5.83 µM | [10] 20.8 µM | [11] 5.06 µM | [12] 17.4 µM | [13] 3.62 µM | [14] 14.2 µM | [16] 33.9 µM | [17] 5.07 µM | [18] 14.3 µM

CC(C)(C)[C@@H]1NC(=O)CN1C(=O)OCc1ccccc1
inactive: [1] > 100 µM | [3] > 100 µM | [4] > 100 µM | [5] > 100 µM | [6] > 100 µM | [7] > 100 µM | [8] > 100 µM | [9] > 100 µM | [10] > 100 µM | [11] > 100 µM | [12] > 100 µM | [19] > 100 µM | [14] > 100 µM | [15] > 100 µM | [16] > 100 µM | [17] > 100 µM | [18] > 100 µM

c1cc2c3c(c1)[C@@H]1O[C@@H]1c1cccc(c1-3)[C@@H]1O[C@H]21
inactive: [1] 63.8 µM | [2] 14.8 µM | [3] 18.1 µM | [4] 18 µM | [5] 15 µM | [6] 17.7 µM | [7] 17.7 µM | [8] 15 µM | [9] 10.1 µM | [10] 19.1 µM | [11] 35 µM | [12] > 100 µM | [19] 14.8 µM | [14] 16.3 µM | [15] 15.7 µM | [16] 18.2 µM | [17] 16.5 µM | [18] 14.6 µM

CC(C)C/C=C/C1=NN(c2cccc(S(=O)(=O)O)c2)C2(C1)SCC(=O)N2c1nc2ccccc2s1 (centres undefined)
inactive: [1] 27.7 µM | [2] 66.8 µM | [3] > 100 µM | [4] 44.2 µM | [5] 67.8 µM | [6] > 100 µM | [7] 51.4 µM | [8] > 100 µM | [9] 30.5 µM | [10] 38.9 µM | [11] 33.8 µM | [12] 29.2 µM | [19] 19.8 µM | [14] 37.2 µM | [15] > 100 µM | [16] > 100 µM | [17] 48.4 µM | [18] 50.1 µM

C=C(C)CC1=C(C(=S)NCCO[Si](C)(C)C(C)(C)C)C(OCC)(OCC)C1=O
inactive: [1] 21.7 µM | [2] 16.3 µM | [3] 22.3 µM | [4] 23 µM | [5] 18.2 µM | [6] 9.59 µM | [8] 18.3 µM | [9] 9.66 µM | [10] 26.4 µM | [11] > 100 µM | [12] > 10 µM | [19] 13.7 µM | [14] 19.1 µM | [15] 15.5 µM | [16] 16.9 µM | [17] 17.7 µM | [18] 18.5 µM

CC(C)C(C=O)C(O)(C(F)(F)F)C(F)(F)F (centres undefined)
inactive: [1] > 100 µM | [2] > 100 µM | [3] > 100 µM | [4] > 100 µM | [5] > 100 µM | [6] > 100 µM | [7] > 100 µM | [8] > 100 µM | [9] > 100 µM | [10] > 100 µM | [11] > 100 µM | [12] > 100 µM | [19] > 100 µM | [13] > 100 µM | [15] > 100 µM | [16] > 100 µM | [17] > 100 µM | [18] > 100 µM

CC1(C)SC2C(NC(=O)C(C(=O)O)c3ccccc3)C(=O)N2C1C(=O)O (centres undefined)
inactive: [1] > 100 µM | [2] > 100 µM | [3] > 100 µM | [4] > 100 µM | [5] > 100 µM | [6] > 100 µM | [7] > 100 µM | [8] > 100 µM | [9] > 100 µM | [10] > 100 µM | [11] > 100 µM | [12] > 100 µM | [13] > 100 µM | [14] > 100 µM | [15] > 100 µM | [16] > 100 µM | [17] > 100 µM | [18] > 100 µM
